Measured values published in patent US10252260B2, “System and method for deforming particles” (CytoVale Inc., priority 2016, dated 2019).

What was measured:
white blood cells = assay: Deformation of white blood cells in viscous co-flow, bullet metric as a function of treatment time; assay type: cell-based; settings: white blood cells treated with 5 nM; compared to untreated controls; FIG. 10
Protocol: FIG. 10 illustrates the bullet metric as a function of treatment time for white blood cells treated with 5 nM phorbol 12-myristate as compared with a untreated control in embodiments of a system and method for deforming particles;
(§1) The system 100 and/or method 200 function to enable the deformation of individual particles in a high-throughput and consistent manner, with the ability to simultaneously generate and analyze multiple data types characterizing the single particles. In one embodiment, the system 100 and/or method 200 further function to enable the generation of data that directly correlates mechanical properties of the particles with one or more fluorescence characterizations of the particles (e.g., fluorescent antibody stains, live/dead cell stains, nuclear stains, stains for apoptosis, fluorescent proteins, etc.) at the single-particle level. This can allow the generation of a direct quantitative comparison between biomolecular properties and mechanical properties. […]
(§2) Regarding Block S240, preferably, deformation metrics can be measured to characterize the deformation of the particles as the particle travels along the deformation region. […]

red blood cells = assay: Deformation of red blood cells in viscous co-flow (primaquine biomodel), diameter versus bullet metric; assay type: cell-based; settings: red blood cells of different stiffness induced by different concentrations of primaquine; FIGS. 11A-11C
Excerpt: FIGS. 11A-11C illustrate bullet metric as a function of size for red blood cells treated with different concentrations of primaquine in variations of a system and method for deforming particles; and
as §1, §2

| Structure (SMILES) | change in a cell morphological metric (bullet metric) over treatment time (white blood cells) | cell morphological metric (e.g. bullet metric) (red blood cells) |
| --- | --- | --- |
| CCCCCCCCCCCCCC(=O)O[C@@H]1[C@@H](C)[C@@]2(O)[C@@H](C=C(CO)C[C@]3(O)C(=O)C(C)=C[C@@H]23)[C@@H]2C(C)(C)[C@]12OC(C)=O | increased change in a cell morphological metric | – |
| COc1cc(NC(C)CCCN)c2ncccc2c1 (centres unmarked) [primaquine] | – | decrease in a cell morphological metric |
